Experimental data taken from ChEMBL document CHEMBL5625209, “Rational design and optimization of acylthioureas as novel potent influenza virus non-nucleoside polymerase inhibitors” (Eur J Med Chem, 2023).
Activity calls are given as the source filed them. No cut-off for these calls is given here.

What was measured:
Influenza A virus [1] = test: Antiviral activity against Influenza A virus H1N1 (A/Puerto Rico/8/34) infected in MDCK cells assessed as reduction in NP protein level at 10 uM in presence of rGTP by Western blot analysis; format: functional, organism-based
Influenza A virus [2] = test: Antiviral activity against Influenza A virus H1N1 (A/Puerto Rico/8/34) infected in MDCK cells assessed as reduction in NP protein level at 10 uM in presence of rATP by Western blot analysis; format: functional, organism-based
Influenza A virus [3] = test: Antiviral activity against Influenza A virus H1N1 (A/Puerto Rico/8/34) infected in MDCK cells assessed as reduction in NP protein level at 10 uM in presence of 125 uM rNTP by Western blot analysis; format: functional, organism-based
Influenza A virus [4] = test: Antiviral activity against Influenza A virus H1N1 (A/Puerto Rico/8/34) infected in MDCK cells assessed as reduction in NP protein level at 10 uM treated at 1 hr post infection by Western blot analysis; format: functional, organism-based
Influenza A virus [5] = test: Antiviral activity against Influenza A virus H1N1 (A/Puerto Rico/8/34) infected in MDCK cells assessed as reduction in NP viral RNA level at 10 uM treated at 1 hr post infection by qRT-PCR analysis; format: functional, organism-based
[6] = Metabolic stability in human liver microsomes assessed as hepatic extraction ratio preincubated for 5 mins followed by NADPH addition and measured upto 45 mins by LC-MS analysis; format: ADME, Microsome; details: time < 50 min
[7] = Metabolic stability in human liver microsomes assessed as half life preincubated for 5 mins followed by NADPH addition and measured upto 45 mins by LC-MS analysis; format: ADME, Microsome; details: time < 50 min
[8] = Metabolic stability in dog liver microsomes assessed as intrinsic clearance preincubated for 5 mins followed by NADPH addition and measured upto 45 mins by LC-MS analysis; format: ADME, Canis lupus familiaris, Microsome; details: time < 50 min, read-out: CLH
[9] = Metabolic stability in dog liver microsomes assessed as half life preincubated for 5 mins followed by NADPH addition and measured upto 45 mins by LC-MS analysis; format: ADME, Canis lupus familiaris, Microsome; details: time < 50 min
[10] = Metabolic stability in mouse liver microsomes assessed as intrinsic clearance preincubated for 5 mins followed by NADPH addition and measured upto 45 mins by LC-MS analysis; format: ADME, Microsome; details: time < 50 min, read-out: CLH
[11] = Metabolic stability in human liver microsomes assessed as intrinsic clearance preincubated for 5 mins followed by NADPH addition and measured upto 45 mins by LC-MS analysis; format: ADME, Microsome; details: time < 50 min, read-out: CLH
[12] = Metabolic stability in mouse liver microsomes assessed as hepatic extraction ratio preincubated for 5 mins followed by NADPH addition and measured upto 45 mins by LC-MS analysis; format: ADME, Microsome; details: time < 50 min
[13] = Metabolic stability in dog liver microsomes assessed as hepatic clearance preincubated for 5 mins followed by NADPH addition and measured upto 45 mins by LC-MS analysis; format: ADME, Canis lupus familiaris, Microsome; details: time < 50 min
[14] = Metabolic stability in mouse liver microsomes assessed as hepatic clearance preincubated for 5 mins followed by NADPH addition and measured upto 45 mins by LC-MS analysis; format: ADME, Microsome; details: time < 50 min
[15] = Metabolic stability in dog liver microsomes assessed as hepatic extraction ratio preincubated for 5 mins followed by NADPH addition and measured upto 45 mins by LC-MS analysis; format: ADME, Canis lupus familiaris, Microsome; details: time < 50 min
[16] = Metabolic stability in human liver microsomes assessed as hepatic clearance preincubated for 5 mins followed by NADPH addition and measured upto 45 mins by LC-MS analysis; format: ADME, Microsome; details: time < 50 min
[17] = Metabolic stability in mouse liver microsomes assessed as half life preincubated for 5 mins followed by NADPH addition and measured upto 45 mins by LC-MS analysis; format: ADME, Microsome; details: time < 50 min

## NC(=O)c1ncn([C@@H]2O[C@H](CO)[C@@H](O)[C@H]2O)n1
Influenza A virus [1]
  Activity: inactive
Influenza A virus [2]
  Activity: inactive
Influenza A virus [3]
  Activity: Active

## NC12CC3CC(CC(C3)C1)C2
Influenza A virus [4]
  Activity: Active
Influenza A virus [5]
  Activity: Active

## O=C(c1ccc(F)cc1)C1CCN(CCn2c(=O)[nH]c3ccccc3c2=O)CC1 [KETANSERIN]
[6]
  hepatic extraction ratio at 0.75 h: 69.3%
[7]
  half-life: 37.2 min
[8]
  CLint scaled: 71.2 mL/min/kg
[9]
  half-life: 48.5 min
[10]
  CLint scaled: 293 mL/min/kg
[11]
  CLint scaled: 46.7 mL/min/kg
[12]
  hepatic extraction ratio at 0.75 h: 76.5%
[13]
  CLhep predicted: 21.6 mL/min/kg
[14]
  CLhep predicted: 68.8 mL/min/kg
[15]
  hepatic extraction ratio at 0.75 h: 69.7%
[16]
  CLhep predicted: 14.3 mL/min/kg
[17]
  half-life: 18.6 min
